Experimental data from PubChem BioAssay (NCI).
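1) Cells in 96-well plates. 2) Compound, 48 h, 5 concentrations. 3) Linear interpolation between surrounding doses. 4) Unreached endpoint = highest concentration. Here, GI50 denotes the concentration required for 50% inhibition of growth. TGI: total growth inhibition.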

Tests used:
Test in all cases: growth of human tumour cells (NCI), 48 h
[1] = tested on: 786-0 renal
[2] = tested on: UACC-257 melanoma
[3] = tested on: SNB-19 CNS
[4] = tested on: EKVX NSCLC
[5] = tested on: KM12 colon
[6] = tested on: HCC-2998 colon
[7] = tested on: SF-268 CNS
[8] = tested on: U251 CNS
[9] = tested on: SR leukemia
[10] = tested on: SK-MEL-2 melanoma

| SMILES | TGI [1] [µM] | TGI [2] [µM] | TGI [3] [µM] | TGI [4] [µM] | TGI [5] [µM] | TGI [6] [µM] | TGI [7] [µM] | TGI [8] [µM] | TGI [9] [µM] | GI50 [1] [µM] | GI50 [2] [µM] | GI50 [10] [µM] | TGI [10] [µM] | GI50 [3] [µM] | GI50 [4] [µM] | GI50 [5] [µM] | GI50 [6] [µM] | GI50 [7] [µM] | GI50 [8] [µM] |
| --- | --- | --- | --- | --- | --- | --- | --- | --- | --- | --- | --- | --- | --- | --- | --- | --- | --- | --- | --- |
| Cc1ccc(N(C(=O)CC(=O)NN)C(=O)c2ccccc2Cl)cc1 | > 100 | > 100 | > 100 | > 100 | > 100 | > 100 | > 100 | > 100 |  |  |  |  |  |  |  |  |  |  |  |
| CC12CCCC(O)C1CCC1=CC3(CCC12)SCCS3 (stereo not drawn) | > 10 | > 10 | > 10 |  | > 10 | > 10 | > 10 | > 10 | > 10 |  |  |  |  |  |  |  |  |  |  |
| CCC[CH2][Sn]1([CH2]CCC)[O]C(=O)C(C(C)C)N=Cc2ccccc2[O]1 (stereo not drawn) | 1.15 | 0.343 | 0.645 | 1.67 | 1.98 | 1.88 | 1.01 | 0.636 |  | 0.307 | 0.143 | 0.195 | 0.521 | 0.214 | 0.402 | 0.648 | 0.6 | 0.182 | 0.228 |
| CC(C)=CCC/C(=C/CC/C(C)=C/CCc1ccoc1)C(=O)O | > 100 | > 100 | > 100 | > 100 | > 100 | > 100 | > 100 | > 100 |  |  |  |  | > 100 |  |  |  |  |  |  |
| NC(N)=NCCCn1c2c(c3ccccc3c1=O)C(=O)c1ccccc1-2 | 3.29 |  | 98.2 | 58.5 | 59.1 | 15.8 | 9.45 | 0.637 |  | 0.681 |  | 19.5 | 33.6 | 18.5 | 16.6 | 21.9 | 3.6 | 1.53 | 0.223 |
| CC[O-].CC[O-].O=C1c2ccccc2C(=O)c2c(O)ccc([O-])c21.O=C1c2ccccc2C(=O)c2c(O)ccc([O-])c21.[Ti+4] | > 100 | > 100 | > 100 | > 100 | > 100 |  | > 100 |  |  |  |  |  | > 100 |  |  |  |  |  |  |
| CN(C)CCCn1c2c(c3ccccc3c1=O)C(=O)c1ccccc1-2 | 14.2 |  | 21.9 | 36.8 | 17.7 |  | 15.2 | 6.37 |  | 2.47 |  | 13.1 | > 100 | 2.2 | 11.3 | 3.6 |  | 2.71 | 1.47 |
| O=C(O)CN(c1ccccc1)S(=O)(=O)c1ccccc1[N+](=O)[O-] | > 100 | > 100 | > 100 | > 100 | > 100 |  | > 100 | > 100 |  |  |  |  | > 100 |  |  |  |  |  |  |
| Cc1noc(C)c1CCCOC1COc2ccccc2OCCOCCOc2ccccc2OC1 | > 100 | > 100 | > 100 | > 100 | > 100 | > 100 | > 100 | > 100 |  |  |  |  | > 100 |  |  |  |  |  |  |
| COc1ccc(C(=O)COc2cccc(/C=C3\COc4ccc5ccccc5c4C3=O)c2)cc1 | > 100 | > 100 | > 100 | > 100 | 24.6 | > 100 | > 100 | > 100 |  | 57.4 | 39.7 | 5.83 | > 100 | 9.37 | 4.26 | 3.11 | 23.5 | 7.83 | 5.61 |
| Fc1cc(F)c(COc2cc(Cn3cnc4c(Cl)nc(Cl)nc43)ccc2C23CC4CC(CC(C4)C2)C3)cc1F | 34.9 | 39.3 | 31.7 | 50.8 | 32.6 | 33.5 | 33.1 | 30.4 |  | 19.4 | 21 | 21 | 56.1 | 17.5 | 23.3 | 17.2 | 18.7 | 16.4 | 16.8 |
| CN(C)c1ccc(N)cc1 | 97.5 | 7.28 | > 100 | 26.4 | 12.2 | 21.2 | 32.7 | 13.2 |  | 8.38 | 2.69 | 2.55 | 7.84 | 4.35 | 3.32 | 3.25 | 4.44 | 6.96 | 3.36 |
| Cc1cc(C)nc(NS(=O)(=O)c2ccc(Nc3c4ccccc4nc4c(C(=O)Nc5ccc(S(=O)(=O)Nc6cc(C)on6)cc5)cccc34)cc2)n1 | 34.8 | 66.6 | 52.1 | 66.7 | 35.7 | 30.9 | 58 | 41.4 | 81.6 |  |  |  |  |  |  |  |  |  |  |
| CCOC1=NC(=O)CC(c2ccccc2)S1 (stereo not drawn) | > 100 | > 100 | > 100 | > 100 | > 100 | > 100 | > 100 | > 100 |  |  |  |  | > 100 |  |  |  |  |  |  |
| Cc1nc2ccccc2c(=O)n1NC(=O)c1ccccn1 | > 100 | > 100 | > 100 | > 100 | > 100 | > 100 | > 100 | > 100 | > 100 |  |  |  |  |  |  |  |  |  |  |
| N#Cc1nc(C2OC(COC(=O)c3ccccc3)C(OC(=O)c3ccccc3)C2OC(=O)c2ccccc2)oc1N (stereo not drawn) | > 100 | > 100 | > 100 | > 100 | > 100 | > 100 | > 100 | > 100 |  |  |  |  | 93.7 |  |  |  |  |  |  |
| CCN(CC)CCCC(C)Nc1c(C)cnc2cc(Cl)c(C)cc12 (stereo not drawn) | 23 | 34.4 | 50.6 | 38.7 | 28.6 |  | 33.3 | > 100 | 3.17 | 10.8 | 18.2 | 20.4 | > 70.6 | 17.7 | 15 | 13.8 |  | 15.3 | 12 |
| Cc1cc(SCC(=O)c2ccccc2)nc2ccccc12 | > 100 | > 100 | > 100 | > 100 | > 100 |  | > 100 | > 100 | > 100 |  |  |  | > 100 |  |  |  |  |  |  |
